Measurements from ChEMBL document CHEMBL5728008, “Compound used as Bruton's tyrosine kinase inhibitor and preparation method and application thereof” (2020).
pIC50: −log10 of the molar value.

Target: Tyrosine-protein kinase BTK (Homo sapiens, UniProt Q06187)
Assay: In Vitro Assay for the Inhibition of BTK Kinase Activity: 1: Test Principle:Mobility-Shift Assay, which is microfluidic chip technology, applies the basic concept of capillary electrophoresis to microfluidic environments. The substrate used for the experiment is a polypeptide with a fluorescent label. Under the action of enzyme in the reaction system, the substrate is transformed into a product, and the charge the substrate carries also changes accordingly. The use of the charge difference between the substrate and the product involved in Mobility-Shift Assay achieves the separating of the two, and they are tested respectively.

Sequence of Tyrosine-protein kinase BTK (Q06187 whole entry): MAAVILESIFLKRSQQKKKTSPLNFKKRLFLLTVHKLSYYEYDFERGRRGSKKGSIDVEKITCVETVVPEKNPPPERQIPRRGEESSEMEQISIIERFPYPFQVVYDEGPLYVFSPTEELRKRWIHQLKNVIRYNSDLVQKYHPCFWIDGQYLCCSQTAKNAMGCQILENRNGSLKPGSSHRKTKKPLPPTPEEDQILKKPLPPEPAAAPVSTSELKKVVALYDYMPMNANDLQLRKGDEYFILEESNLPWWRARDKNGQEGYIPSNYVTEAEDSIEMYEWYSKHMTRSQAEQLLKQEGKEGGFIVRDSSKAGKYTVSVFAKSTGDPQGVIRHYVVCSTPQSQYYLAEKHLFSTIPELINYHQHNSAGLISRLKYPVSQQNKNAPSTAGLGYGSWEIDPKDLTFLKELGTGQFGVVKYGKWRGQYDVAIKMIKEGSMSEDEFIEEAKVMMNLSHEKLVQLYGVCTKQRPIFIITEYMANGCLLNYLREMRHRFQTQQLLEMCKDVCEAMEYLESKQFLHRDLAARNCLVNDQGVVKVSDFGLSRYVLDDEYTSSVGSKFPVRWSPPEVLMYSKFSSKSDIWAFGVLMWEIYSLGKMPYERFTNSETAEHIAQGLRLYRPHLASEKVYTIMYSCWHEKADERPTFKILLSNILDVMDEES

pIC50: 8.33
Structure (SMILES): C=CC(=O)N1CC2CCCC2C1c1nc(-c2ccc(C(=O)Nc3ccccn3)cc2)c2c(N)nccn12 (stereo unspecified)
